In patent US7109193B2, “Tricyclic diazepines tocolytic oxytocin receptor antagonists” (Wyeth, priority 2001, dated 2006):

The compounds below were run against T1, human oxytocin receptor (Homo sapiens, UniProt P30559) (assay: Oxytocin binding in Chinese Hamster Ovary cell membranes expressing human oxytocin receptors). Settings: 100 nM, CHO cell membranes, [3H]oxytocin, values without parentheses.
T1 construct: host or cells: CHO cells (pcDNA3.1 vector)
T1 sequence (P30559 1-389): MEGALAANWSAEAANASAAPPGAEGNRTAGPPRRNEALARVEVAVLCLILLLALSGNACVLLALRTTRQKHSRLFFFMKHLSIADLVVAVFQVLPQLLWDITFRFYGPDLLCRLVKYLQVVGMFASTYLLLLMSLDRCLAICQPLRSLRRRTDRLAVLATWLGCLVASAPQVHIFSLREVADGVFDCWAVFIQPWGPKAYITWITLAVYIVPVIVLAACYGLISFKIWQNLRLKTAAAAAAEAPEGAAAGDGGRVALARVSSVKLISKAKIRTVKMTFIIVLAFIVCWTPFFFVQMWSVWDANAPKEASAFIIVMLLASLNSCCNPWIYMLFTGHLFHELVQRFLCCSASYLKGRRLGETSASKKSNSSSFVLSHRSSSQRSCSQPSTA
Experimental: Oxytocin Binding in Chinese Hamster Ovary Cell Membranes Expressing Human Oxytocin Receptors
The trypsin is removed by aspiration and the cells dislodged by tapping. Cell Culture medium (e.g. 30 mL for 1:30 split) is immediately added and mixed well to inactivate trypsin. 1 mL of detached cells is added to new culture flasks containing fresh Cell Culture medium (e.g. into 25 mL per T-150 flask), and mixed gently. The cells are incubated at 37° C. in 5% CO2. The medium is changed at 3 to 4 days interval (or as appropriate). […] All steps are done under sterile conditions. B. Membrane Preparation: The cells are washed twice gently with Hank's Balanced Salt solution (e.g., use 10 mL per T-150 flask). […] The contents are transferred to centrifuge tubes (50 mL size) kept in ice bath. All subsequent steps are done at 4° C. The tubes are centrifuged at 300×g for 15 min (1380 rpm on SORVAL, Model RT6000D, using rotor for 50 mL tubes). The supernatant is discarded and the cells suspended in homogenizing buffer (10 mM Tris-HCl containing 0.25 M sucrose and 1 mM EDTA, pH 7.4) ensuring that the volume of the buffer is about ten times the volume of the cell pellet. The cells are pooled into a centrifuge tube (50 mL) and homogenized with a Polytron at setting 6 for 10 sec. The homogenate is transferred into a Potter-Elvjehm homogenizer and homogenized with 3 strokes. The homogenate is centrifuged at 1500×g for 10 min at 4° C. (3100 rpm using SORVAL, model RT6000D, using rotor for 50 mL tubes). The pellet is discarded. The supernatant is centrifuged at 100,000×g for 60 min. at 4° C. (Beckman L8-80M ultracentrifuge; spin at 37,500 rpm with rotor type 70 Ti for 50 mL tubes; 38,000 rpm with type 80Ti for 15 mL tubes; or 35,800 rpm with rotor type 45Ti). The supernantant is discarded and the pellet suspended in 3 to 4 mL of Tris buffer (50 mM TRIS-HCl, pH 7.4). The protein content is estimated by the Bradford or Lowry method. The volume of the membrane suspension is adjusted with the membrane buffer (50 mM Tris-HCl containing 0.1% BSA and 0.1 mM PMSF) to give 3.0 mg/mL (or as appropriate) of protein. The membranes are aliquoted and stored at −70° C. C. Radioligand Binding Assay: In wells of a 96-well format microtiter plate, is added 90, 110 or 130 μL (to make up a final volume of 200 μL) of assay buffer containing 50 mM of Tris-HCl (pH 7.4), […], 1 mg % aprotinin, 1 mg % leupeptin, 2 mg % 1,10-phenanthroline, 10 mg % trypsin inhibitor, and 0.1 mM PMSF. The inhibitors are added on the day of the experiment. The components are mixed at room temperature, and then kept in ice bath following adjustment of the pH to 7.4. […] For oxytocin and other peptide ligands, 20 μL of 50% DMSO is added and the assay buffer volume is adjusted accordingly. To each well is added 50 μL of frozen membrane suspension thawed immediately prior to use and diluted in assay buffer to the required concentration (equivalent to 25 to 50 μg of protein/well as needed). 20 μL of 8 nM [^3H]oxytocin in the assay buffer, prepared just before use is added and incubated at room temperature for 60 min. shaking the plate on a mechanical shaker for the first 15 min. The incubation is stopped by rapid filtration of the plate contents followed by washing with ice-cold buffer (50 mM Tris-HCl, pH 7.4) using a cell harvester (Tomtek and Printed filtermat-B filter paper). The filter paper is thoroughly dried (7–12 min. in a microwave oven) and impregnated with MeltiLex B/H melt-on scintillation wax sheets and the radioactivity counted in a betaplate scintillation counter.
Binding data is either reported as percent inhibition at a certain concentration or if an IC50 was calculated, as a nanomolar concentration.
For `COc1ccccc1-c1ccc(C(=O)N2Cc3ccc(C(=O)N4CCC(N5CCCC5)CC4)n3Cc3ccccc32)cc1OC` [Example 145, {10-[(2,2′-Dimethoxy[1,1′-biphenyl]4-yl)carbonyl]-10,11-dihydro-5H-pyrrolo[2,1-c][1,4]benzodiazepin-3-yl}[4-(1-pyrrolidinyl)-l-piperidinyl]methanone], the “OT % inhibition @ 100% nM” value was 53%.
For `COc1cc2c(cc1OC)N(C(=O)c1ccc(-c3ccccc3C(F)(F)F)c(C)c1)Cc1ccc(C(=O)N3CCC(=O)CC3)n1C2` [Example 14, 7,8-Dimethoxy-10-{[2-methyl-2′-(trifluoromethyl)-[1,1′-biphenyl]-4-yl]carbonyl}-[(10,11-dihydro-5H-pyrrolo[2,1-c][1,4]benzodiazepin-3-yl)carbonyl]-4-piperidinone], the “OT % inhibition @ 100% nM” value was 9%.
`Cc1ccccc1-c1ccc(C(=O)N2Cc3ccc(C(=O)N4CC[C@@H](N(C)C)C4)n3Cc3ccccc32)cc1` [Example 280, [(3R)-3-(Dimethylamino)pyrrolidinyl]{10-[(2′-methyl[1,1′-biphenyl]-4-yl)carbonyl]-10,11-dihydro-5H-pyrrolo[2,1-c][1,4]benzodiazepin-3-yl}methanone] was tested, and the “OT % inhibition @ 100% nM” value was 95%.
With `COC(=O)c1ccc2c(c1)N(C(=O)c1ccc(-c3ccccc3C(F)(F)F)c(C)c1)Cc1cccn1C2` [Example 26, Methyl 10-{[2-methyl-2′-trifluoromethyl-[1,1′-biphenyl]-4-yl]carbonyl}-10,11-dihydro-5H-pyrrolo[2,1-c][1.4]benzodiazepine-8-carboxylate] the “OT % inhibition @ 100% nM” value was 17%.
`COc1cc(C(=O)N2Cc3ccc(C(=O)N4CCC[C@H]4CN4CCCC4)n3Cc3ccccc32)ccc1-c1ccccc1Cl` [Example 33, {[10-(2-Methoxy)-2′-chloro-[1,1′-biphenyl]-4-yl]carbonyl}-[(2S)-[(2-pyrrolidin-1-yl)methyl]pyrrolidin-1-yl]-10,11-dihydro-5H-pyrrolo[2,1-c][1,4]benzodiazepin-3-yl-methanone] was tested, and the “OT % inhibition @ 100% nM” value was 101%.
With `COc1cc(C(=O)N2Cc3ccc(C(=O)N4CC[C@@H](N(C)C)C4)n3Cc3ccccc32)ccc1-c1ccccc1C` [Example 281, [(3R)-3-(Dimethylamino)pyrrolidinyl]{10-[(2-methoxy-2′-methyl[1,1′-biphenyl]-4-yl)carbonyl]-10,11-dihydro-5H-pyrrolo[2,1-c][1,4]benzodiazepin-3-yl}methanone] the “OT % inhibition @ 100% nM” value was 93%.

Same assay, conditions: 100 nM, CHO cell membranes, [3H]oxytocin, values without parentheses, read-out: OT % inhibition @ 100% nM
In the case of `COc1cccc(-c2cc(OC)c(C(=O)N3Cc4ccc(C(=O)N5CCC(N6CCCCC6)CC5)n4Cc4ccccc43)cc2Cl)c1` [Example 117, {10-[(6-Chloro-3-methoxy-3′-methoxy[1,1′-biphenyl]-4-yl)carbonyl]-10,11-dihydro-5H-pyrrolo[2,1-c][1,4]benzodiazepin-3-yl}[4-(1-piperidinyl)-1-piperidinyl]methanone], the inhibition at 0.1 µM is reported as 70%.
`COc1cccc(-c2cc(OC)c(C(=O)N3Cc4ccc(C(=O)NCCCn5ccnc5)n4Cc4ccccc43)cc2Cl)c1` [Example 130, 10-[(6-Chloro-3,3′-dimethoxy[1,1′-biphenyl]-4-yl)carbonyl]-N-[3-(1H-imidazol-1-yl)propyl]-10,11-dihydro-5H-pyrrolo[2,1-c][1,4]benzodiazepine-3-carboxamide] was tested, and the inhibition at 0.1 µM was 46%.
With `COc1cccc(-c2ccc(C(=O)N3Cc4ccc(C(=O)N5CCC(N6CCCC6)CC5)n4Cc4ccccc43)cc2C)c1` [Example 139, {10-[(3′-Methoxy-2-methyl[1,1′-biphenyl]-4-yl)carbonyl]-10,11-dihydro-5H-pyrrolo[2,1-c][1,4]benzodiazepin-3-yl}[4-(1-pyrrolidinyl)-1-piperidinyl]methanone] the inhibition at 0.1 µM was 76%.
For `Cc1ccccc1-c1ccc(C(=O)N2Cc3ccc(C(=O)NCCN4CCCCC4)n3Cc3ccccc32)cc1C` [Example 150, 10-[(2,2′-Dimethyl[1,1′-biphenyl]-4-yl)carbonyl]-N-[2-(1-piperidinyl)ethyl]-10,11-dihydro-5H-pyrrolo[2,1-c][1,4]benzodiazepine-3-carboxamide], the inhibition at 0.1 µM was 75%.
`COc1cccc(-c2cc(OC)c(C(=O)N3Cc4ccc(C(=O)N5CCC(N6CCCC6)CC5)n4Cc4ccccc43)cc2Cl)c1` [Example 143, {10-[(6-Chloro-3,3′-dimethoxy[1,1′-biphenyl]-4-yl)carbonyl]-10,11-dihydro-5H-pyrrolo[2,1-c][1,4]benzodiazepin-3-yl}[4-(1-pyrrolidinyl)-1-piperidinyl]methanone] gave an inhibition at 0.1 µM of 69%.
Work on `COc1cccc(-c2ccc(C(=O)N3Cc4ccc(C(=O)N5CCC(N6CCCCC6)CC5)n4Cc4ccccc43)cc2OC)c1` [Example 120, {10-[(2,3′-Dimethoxy-[1,1′-biphenyl]-4-yl)carbonyl]-10,11-dihydro-5H-pyrrolo[2,1-c][1,4]benzodiazepin-3-yl}[4-(1-piperidinyl)-1-piperidinyl]methanone] yielded an inhibition at 0.1 µM of 69%.
In the case of `Cc1ccccc1-c1ccc(C(=O)N2Cc3ccc(C(=O)NCCN4CCCCC4)n3Cc3ccccc32)cc1` [Example 153, 10-[(2′-Methyl[1,1′-biphenyl]-4-yl)carbonyl]-N-[2-(1-piperidinyl)ethyl]-10,11-dihydro-5H-pyrrolo[2,1-c][1,4]benzodiazepine-3-carboxamide], the inhibition at 0.1 µM is reported as 60%.
`COc1cccc(-c2ccc(C(=O)N3Cc4ccc(C(=O)NCCCn5ccnc5)n4Cc4ccccc43)cc2OC)c1` [Example 133, 10-[(2,3′-Dimethoxy[1,1′-biphenyl]4-yl)carbonyl]-N-[3-(1H-imidazol-1-yl)propyl]-10,11-dihydro-5H-pyrrolo[2,1-c][1,4]benzodiazepine-3-carboxamide] showed an inhibition at 0.1 µM of 46%.
Work on `Cc1ccccc1-c1ccc(C(=O)N2Cc3ccc(C(=O)N4CCC(N5CCCC5)CC4)n3Cc3ccccc32)cc1` [Example 141, {10-[(2′-Methyl[1,1′-biphenyl]-4-yl)carbonyl]-10,11-dihydro-5H-pyrrolo[2,1-c][1,4]benzodiazepin-3-yl}[4-(1-pyrrolidinyl)-1-piperidinyl]methanone] yielded an inhibition at 0.1 µM of -6%.
`COc1cc(C(=O)N2Cc3ccc(C(=O)N4CCC(N5CCCC5)CC4)n3Cc3ccccc32)ccc1-c1cccc2ccccc12` [Example 144, {10-[3-Methoxy-4-(1-naphthyl)benzoyl]-10,11-dihydro-5H-pyrrolo[2,1-c][1,4]benzodiazepin-3-yl}[4-(1-pyrrolidinyl)-1-piperidinyl]methanone] showed an inhibition at 0.1 µM of 53%.
In the case of `COc1cc(-c2ccccc2C)c(Cl)cc1C(=O)N1Cc2ccc(C(=O)NCCN3CCCCC3)n2Cc2ccccc21` [Example 155, 10-[(6-Chloro-3-methoxy-2′-methyl[1,1′-biphenyl]-4-yl)carbonyl]-N-[2-(1-piperidinyl)ethyl]-10,11-dihydro-5H-pyrrolo[2,1-c][1,4]benzodiazepine-3-carboxamide], the inhibition at 0.1 µM is reported as 56%.
